Experimental data published in US10544110B2, “Small molecule inhibitors of the nuclear translocation of androgen receptor for the treatment of castration-resistant prostate cancer” (University of Pittsburgh-Of the Commonwealth System of …, priority 2013, dated 2020).
“And” between values parts separate entries of the source, which are not always exact repeats. Identical values can stand only once.

Tested on: AR transcriptional activity (PSA promoter activity)
Test: PSA luciferase assay in C4-2-PSA-rl cells (Dual-Glo luciferase system)
Details: C4-2-PSA-rl cells; for IC50: 24 h treatment, 1 nM R1881, mean and SD of 2-6 independent experiments; for activity in PSA luciferase assay (in words): up to 25 μM
Experimental: C4-2-PSA-rl cells were seeded in 24-well plates such that they reached 75-80% cell monolayer density after 24 h. […] Each compound was tested in at least two independent experiments. Luciferase activity was assayed using the Dual-Luciferase® Reporter Assay System (Promega) using LMax II Microplate Reader (Molecular Devices). The luciferase assay results were acquired using SoftMax Pro5.45 software (Molecular Devices) and analyzed using GraphPad Prism. PSA6.1-luc activity was normalized to the Renilla luciferase activity. Relative luciferase activity was calculated as the quotient of androgen-induced PSA-firefly/Renilla luciferase activity. Since PSA promoter activity correlates to AR transcriptional activity, inhibition of AR will result in decreased PSA-luciferase activity.

Row | SMILES | IC50 (24 h) [µM] | activity in PSA luciferase assay (in words) | IC50
1 | COc1ccccc1N1CCN(C(=O)CSCc2c(C)noc2C)CC1 [Compound 5h, 2-(((3,5-Dimethylisoxazol-4-yl)methyl)thio)-1-(4-(2-methoxyphenyl)piperazin-1-yl)ethanone] | > 25 | complete loss of activity | 
2 | Cc1ccccc1N1CCN(S(=O)(=O)CSCc2c(C)noc2C)CC1 [Compound 18c, 3,5-Dimethyl-4-(((((4-(o-tolyl)piperazin-1-yl)sulfonyl)methyl)thio)methyl)isoxazole] | 7.2 |  | 
3 | Cc1ccc(N2CCN(C(=O)CSCc3c(C)noc3C)CC2)cc1 [Compound 5d, 2-(((3,5-Dimethylisoxazol-4-yl)methyl)thio)-1-(4-(p-tolyl)piperazin-1-yl)ethanone] | > 25 | loss of activity | 
4 | Cc1cccc(N2[C@H](C)CN(C(=O)CSCc3c(C)noc3C)C[C@@H]2C)c1 [Compound 5m, 1-(3,5-Dimethyl-4-(m-tolyl)piperazin-1-yl)-2-(((3,5-dimethylisoxazol-4-yl)methyl)thio)ethan-1-one] | 15 to 17 |  | 16.6 ± 4.8 µM
5 | Cc1ccccc1N1C[C@@H](C)N(C(=O)CSCc2c(C)noc2C)[C@@H](C)C1 [Compound 5k, 1-(2,6-Dimethyl-4-(o-tolyl)piperazin-1-yl)-2-(((3,5-dimethylisoxazol-4-yl)methyl)thio)ethanone] | 3.1 | significantly more potent than 1 | 
6 | Cc1ccccc1[C@@H]1C[C@H]2CC[C@@H](C1)N2C(=O)CSCc1c(C)noc1C [Compound 26b] |  |  | 8 µM and 7.9 µM
7 | Cc1ccccc1C1CC2CCC(C1)N2C(=O)CSCc1c(C)noc1C (stereo not drawn) [Compound 26a, 2-(((3,5-Dimethylisoxazol-4-yl)methyl)thio)-1-(3-endo-(o-tolyl)-8-azabicyclo[3.2.1]octan-8-yl)ethanone] |  |  | 8 µM and 7.7 µM
8 | Cc1ccccc1N1CCN(C(=O)C[S+]([O-])Cc2c(C)noc2C)CC1 (stereo not shown) [Compound 12, 2-(((3,5-Dimethylisoxazol-4-yl)methyl)sulfinyl)-1-(4-(o-tolyl)piperazin-1-yl)ethan-1-one] | > 25 | inactive | 
9 | Cc1ccccc1N(C)CCN(C)C(=O)CSCc1c(C)noc1C [Compound 5i, 2-(((3,5-Dimethylisoxazol-4-yl)methyl)thio)-N-methyl-N-(2-(methyl(o-tolyl)amino)ethyl) acetamide] | 18.4 |  | 
10 | Cc1cccc(N2CCN(C(=O)CSCc3c(C)noc3C)CC2)c1 [Compound 5c, 2-(((3,5-Dimethylisoxazol-4-yl)methyl)thio)-1-(4-(m-tolyl)piperazin-1-yl)ethanone] | > 25 | loss of activity | 
11 | Cc1ccccc1N1CCN(C(=O)C#Cc2ccccc2)CC1 [Compound 10, 3-Phenyl-1-(4-(o-tolyl)piperazin-1-yl)prop-2-yn-1-one] | 20.3 ± 11.6 | essentially inactive | 
12 | Cc1ccccc1N1CCN(C(=O)/C=C\c2ccccc2)CC1 [Compound 14, (Z)-3-Phenyl-1-(4-(o-tolyl)piperazin-1-yl)prop-2-en-1-one] | 12.7 |  | 
13 | Cc1noc(C)c1CSCC(=O)N1CCN(c2cccc3ccccc23)CC1 [Compound 5g, 2-(((3,5-Dimethylisoxazol-4-yl)methyl)thio)-1-(4-(naphthalen-1-yl)piperazin-1-yl)ethanone] | 11.1 |  | 
14 | Cc1ccccc1N1CCN(C(=O)CN(C)Cc2ccccc2)CC1 [Compound 18b, 2-(Benzyl(methyl)amino)-1-(4-(o-tolyl)piperazin-1-yl)ethanone] | > 25 | abolished activity | 
15 | Cc1noc(C)c1CSCC(=O)N1C[C@@H](C)N(c2ccccc2)[C@@H](C)C1 [Compound 5l, 1-(3,5-Dimethyl-4-phenylpiperazin-1-yl)-2-(((3,5-dimethylisoxazol-4-yl)methyl)thio)ethan-1-one] | 15 to 17 |  | 14.7 ± 4.4 µM
16 | Cc1noc(C)c1CSCC(=O)N1CCN(c2ccccc2C#N)CC1 [Compound 5e, 2-(4-(2-(((3,5-Dimethylisoxazol-4-yl)methyl)thio)acetyl)piperazin-1-yl)benzonitrile] | 12 to 13 |  | 12 ± 1.6 µM
17 | Cc1ccc(Cl)cc1N1CCN(C(=O)[C@@H]2C[C@@H]2c2ccc(F)cc2)CC1 [JJ-450B, (4-(5-Chloro-2-methylphenyl)piperazin-1-yl)((1R,2S)-2-(4-fluorophenyl)cyclopropyl)-methanone] | 13.1 ± 1.8 |  | 
18 | Cc1ccccc1N1CCN(C(=O)COCc2c(C)noc2C)CC1 [Compound 18a, 2-((3,5-Dimethylisoxazol-4-yl)methoxy)-1-(4-(o-tolyl)piperazin-1-yl)ethan-1-one] | > 25 | abolished activity | 
19 | Cc1ccccc1N1CCCN(C(=O)CSCc2c(C)noc2C)CC1 [Compound 5j, 2-(((3,5-Dimethylisoxazol-4-yl)methyl)thio)-1-(4-(o-tolyl)-1,4-diazepan-1-yl)ethan-1-one] | 11.1 |  | 
20 | Cc1ccccc1N1CCN(C(=O)CS(=O)(=O)Cc2c(C)noc2C)CC1 [Compound 13, 2-(((3,5-Dimethylisoxazol-4-yl)methyl)sulfonyl)-1-(4-(o-tolyl)piperazin-1-yl)ethan-1-one] | 16.1 |  | 
21 | Cc1ccccc1N1CCC(OC(=O)NCSCc2c(C)noc2C)CC1 [Compound 20b] | > 25 | inactive | 
22 | Cc1ccccc1N1CCN(C(=O)CSCc2c(C)noc2C)CC1 [Compound 5b, 2-(((3,5-Dimethylisoxazol-4-yl)methyl)thio)-1-(4-(o-tolyl)piperazin-1-yl)ethanone] | 14.5 |  | 
23 | Cc1noc(C)c1CSCC(=O)N1CCN(c2ccccc2)CC1 [Compound 5a, 2-(((3,5-Dimethylisoxazol-4-yl)methyl)thio)-1-(4-phenylpiperazin-1-yl)ethanone] | > 25 | deleted activity | 
24 | Cc1ccccc1N1CCN(C(=O)/C=C/c2ccccc2)CC1 [Compound 11, (E)-3-Phenyl-1-(4-(o-tolyl)piperazin-1-yl)prop-2-en-1-one] | > 25 | essentially inactive | 
25 | Cc1noc(C)c1CSCC(=O)N1CCN(c2ccccc2F)CC1 [Compound 5f, 2-(((3,5-Dimethylisoxazol-4-yl)methyl)thio)-1-(4-(2-fluorophenyl)piperazin-1-yl)ethan-1-one] | 12 to 13 |  | 12.6 ± 7.7 µM
26 | Cc1ccc(Cl)cc1N1CCN(C(=O)[C@H]2C[C@H]2c2ccc(F)cc2)CC1 [JJ-450A, (4-(5-chloro-2-methylphenyl)piperazin-1-yl)((1S,2R)-2-(4-fluorophenyl)cyclopropyl)methanone] | 1.6 ± 0.1 | significantly more potent than 1 | 
27 | Cc1ccccc1N1CCN(C(=O)[C@H]2C[C@@H]2c2ccccc2)CC1 (racemic) [Compound 16, ((1SR,2SR)-2-Phenylcyclopropyl)(4-(o-tolyl)piperazin-1-yl)methanone] | > 25 | essentially inactive | 
28 | Cc1ccccc1N1CCN(C(=O)C2CC2c2ccccc2)CC1 (stereo not shown) [Compound 15, (2-Phenylcyclopropyl)(4-(o-tolyl)piperazin-1-yl)methanone] | 2.9 | significantly more potent than 1 | 
